One series deals with TMEM16A. Particulars: ref Namkung et al., 2011; read-out: EC50 in activating TMEM16A; cited from earlier work.
In series [1] the test system is human bronchial epithelial ALI cultures. As to the kind of experiment: Muc5AC secretion from human bronchial epithelial ALI cultures. The format is cell-based. Conditions: 5 μM, 72 hours, p < 0.05. The procedure: (§1) 1.2 Effects of the TMEM16A opener Eact on leukotriene secretion and Muc5AC mucin production from human bronchial epithelial air-liquid interface cultures.
(§2) Normal, asthma and COPD human bronchial epithelial (HBE) cells were from Lonza (Walkersville, MD). Cells were grown on […] transparent PET transwell membranes insert (BD biosciences, San Diego). S-ALI air-liquid interface media (Lonza) was changed every other day until the cells reached confluence, at which time the apical medium was removed to establish an air liquid interface cultures. The basolateral medium was changed every other day. All experimentation was carried out on day 14-18 after ALI establishment. At this point, mature secretory cells are present in these differentiating cultures and the cells respond with maximal […] to IL-13 (10 ng/ml) (Peprotech, […]
(§3) Human ALI cultures from a normal donor were treated with Eact, Eact vehicle and 10 ng/ml IL13 in basolateral medium for 48 hrs.
(§4) After 48hr, 100 µl of basolateral medium were collected for determining leukotriene B4 and C4 secretion using ELISA kits from Enzo Life Sciences, Inc. and LSBio LifeSpan Biosciences Inc., respectively, and by following manufacture’s protocols. […]
(§5) Levels of Muc5AC protein in apical washes was then determined using a Muc5AC ELISA kit (Cosmo Bio USA, Carlsbad, CA) and following the manufacture’s protocol.

The test system is the same in series [2]. As to the kind of experiment: Leukotriene (LTC4, LTB4) secretion from human bronchial epithelial ALI cultures. The class given is cell-based. Particulars: 48 hrs, p < 0.05. The protocol:
as §1, §2, §3, §4, §5

The test system of the next series is human ASM cells. Kind of series: Eact-induced depolarization of human ASM cells (FLIPR membrane potential). The class given is cell-based. From the text: While the method above using histamine represents the standard protocol we used to evaluate compound effects in blocking pro-contractile depolarization of human BSMCs, for some experiments provided as Supplementary Figures 1–44 we employed the cholinergics methacholine or carbachol instead of histamine, or evaluated if the TMEM16A opener, Eact, could itself act like contractants to induce BSMC membrane depolarization.
3.31 Supplementary Figure 31
Supplementary Figure 31. The small molecule TMEM16A activator, Eact , induces depolarization of primary human airway smooth muscle cells like the contractant carbachol. Kinetic traces from the FLIPR membrane potential assay indicate Eact (A) and carbachol (B) elicit a concentration dependent depolarization of human ASM cells which were serum starved for 4 hours [prf SmGM overnight + 4h prf SmBM]. The potency for Eact depolarization of ASM cells isolated from a normal, asthmatic or COPD patient is shown in panel (C). The […]
report for activation of TMEM16A. RFU, relative fluorescence units. AUC, area under the curve.
(also on this page, place not known: ‘Eact’ Carbachol TMEM16A 3.0 µM A B C)
(1 picture or pasted object on this page, not shown here)

The next series has as its system airways. Also on record: method as in Stocks et al., 2014. Particulars: ref Stocks et al., 2014; cited from earlier work.
The test system of a further series is cytochrome P450 enzymes. On the set-up: method as in White, 2004; Anderson and Curran, 2007; Rossignol, 2014. Conditions: ref White, 2004; Anderson and Curran, 2007; Rossignol, 2014; cited from earlier work.
For another series, the target named is T1, TMEM16A (acd) (Homo sapiens, UniProt Q5XXA6).
T1 sequence (Q5XXA6 1-986): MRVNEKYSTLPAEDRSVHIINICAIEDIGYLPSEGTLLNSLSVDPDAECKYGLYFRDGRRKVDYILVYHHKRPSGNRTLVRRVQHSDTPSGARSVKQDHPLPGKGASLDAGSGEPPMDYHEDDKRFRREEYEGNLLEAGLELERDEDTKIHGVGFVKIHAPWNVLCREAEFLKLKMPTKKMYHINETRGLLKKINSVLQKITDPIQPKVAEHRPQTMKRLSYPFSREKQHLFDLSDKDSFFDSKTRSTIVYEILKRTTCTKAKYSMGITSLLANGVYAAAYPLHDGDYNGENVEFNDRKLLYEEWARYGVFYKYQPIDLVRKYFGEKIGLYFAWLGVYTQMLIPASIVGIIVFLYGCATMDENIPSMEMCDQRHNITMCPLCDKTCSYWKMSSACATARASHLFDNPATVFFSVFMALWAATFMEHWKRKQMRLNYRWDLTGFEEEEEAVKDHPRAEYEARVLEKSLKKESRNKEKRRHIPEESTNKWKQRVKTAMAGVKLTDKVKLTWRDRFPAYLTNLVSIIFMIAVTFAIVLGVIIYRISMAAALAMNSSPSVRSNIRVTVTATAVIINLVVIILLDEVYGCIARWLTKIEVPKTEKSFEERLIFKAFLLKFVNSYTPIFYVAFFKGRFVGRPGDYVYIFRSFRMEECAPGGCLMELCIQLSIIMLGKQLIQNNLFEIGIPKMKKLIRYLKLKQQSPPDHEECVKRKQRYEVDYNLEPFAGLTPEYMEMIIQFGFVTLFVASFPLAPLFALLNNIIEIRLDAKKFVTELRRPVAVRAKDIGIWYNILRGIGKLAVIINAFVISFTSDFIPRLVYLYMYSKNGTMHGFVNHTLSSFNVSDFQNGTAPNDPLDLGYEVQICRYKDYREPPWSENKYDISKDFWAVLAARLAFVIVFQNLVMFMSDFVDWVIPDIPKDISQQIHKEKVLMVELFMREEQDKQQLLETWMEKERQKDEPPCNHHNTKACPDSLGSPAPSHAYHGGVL
As to the kind of experiment: QPatch whole-cell electrophysiology, HEK293 TMEM16A (acd). The class given is cell-based. Particulars: QPatch. The source says:
HEK293 cells stably expressing the TMEM16A (acd) variant were purchased from SB Drug Discovery. The HEK293 TMEM16A (abc) stable cell line was from ChanTest and COLO-205 cells were purchased from ATCC. The same standard buffers and recording conditions listed below were used for QPatch studies on all three cell lines.
Recording Solutions: were made weekly as below and stored at room temperature until used. It is recommended not to add ATP to internal solution until immediately before using on the QPatch. The external buffer (in mM) was 140 NaCl, 4 KCl, 2 CaCl2, 1 MgCl2, 10 HEPES, 10 Glucose, pH7.4, while the internal buffer (in mM) was 110 CsCl, 20 TEA-Cl, 5.374 CaCl2, 1.75 MgCl2, 10 EGTA, 10 HEPES, 4 Na2ATP, pH 7.2.
Once established in whole-cell configuration, cells were clamped to a holding potential (Vhold) of 0 mV on 48 well single hole patch plate. A standardized IV protocol was used to elicit ionic current through the TMEM16A chloride channel at 20 s intervals. Steady-state voltage pulses were from −100 mV to +100 mV in +20 mV steps for a duration of 500 ms. After each pulse the voltage was returned to −100 mV for 50 ms to obtain tail currents, and then returned to the holding potential of 0 mV until the beginning of the next sweep. […] This ensures a minimum of 60 s per concentration incubation before measuring current block. Currents were acquired at 10 kHz and filtered at 2 kHz, leak subtraction and Rseries were disabled. A 1 MΩ minimum resistance was set because cells are held in an open channel state and therefore resistance is low.
A cumulative concentration response was measured where each cell is exposed to five concentrations of test article with a dilution factor of 1:5 (e.g., 0.048, 0.24, 1.2, 6, and 30 μM). Cells were recorded for ∼60 s per solution/compound addition. Initially, external solution is applied twice to allow currents to stabilize. Then vehicle (from the saline reservoir) is added twice to monitor any effect 0.3% DMSO might have on currents. This leads directly into the concentration runs by applying Concentration 1 (single addition) for 1 min. Concentration 2 is then applied for the subsequent minute, etc. Recovery/washout was monitored for a final minute with a final external solution addition.
[…] […] Each cell’s current magnitude was then normalized to itself at the initial 0.3% vehicle control period prior to compound application. This step is to account for differences in current size for each cell. Normalized responses to test article were plotted against their concentrations to reveal a concentration-inhibition plot.
A Normalized Group Hill fit was then performed on the plotted results to yield a pooled IC50 value, reconstructed from a minimum of two cells/concentration. The baseline response as well as the full response were constrained to 1 and 0, respectively.

Another series concerns the target T2, hTMEM16A (abc) (Homo sapiens, UniProt Q5XXA6, DEL476-501).
T2 sequence (Q5XXA6 with tags, fused parts or gaps isoform Q5XXA6-5 DEL539-564): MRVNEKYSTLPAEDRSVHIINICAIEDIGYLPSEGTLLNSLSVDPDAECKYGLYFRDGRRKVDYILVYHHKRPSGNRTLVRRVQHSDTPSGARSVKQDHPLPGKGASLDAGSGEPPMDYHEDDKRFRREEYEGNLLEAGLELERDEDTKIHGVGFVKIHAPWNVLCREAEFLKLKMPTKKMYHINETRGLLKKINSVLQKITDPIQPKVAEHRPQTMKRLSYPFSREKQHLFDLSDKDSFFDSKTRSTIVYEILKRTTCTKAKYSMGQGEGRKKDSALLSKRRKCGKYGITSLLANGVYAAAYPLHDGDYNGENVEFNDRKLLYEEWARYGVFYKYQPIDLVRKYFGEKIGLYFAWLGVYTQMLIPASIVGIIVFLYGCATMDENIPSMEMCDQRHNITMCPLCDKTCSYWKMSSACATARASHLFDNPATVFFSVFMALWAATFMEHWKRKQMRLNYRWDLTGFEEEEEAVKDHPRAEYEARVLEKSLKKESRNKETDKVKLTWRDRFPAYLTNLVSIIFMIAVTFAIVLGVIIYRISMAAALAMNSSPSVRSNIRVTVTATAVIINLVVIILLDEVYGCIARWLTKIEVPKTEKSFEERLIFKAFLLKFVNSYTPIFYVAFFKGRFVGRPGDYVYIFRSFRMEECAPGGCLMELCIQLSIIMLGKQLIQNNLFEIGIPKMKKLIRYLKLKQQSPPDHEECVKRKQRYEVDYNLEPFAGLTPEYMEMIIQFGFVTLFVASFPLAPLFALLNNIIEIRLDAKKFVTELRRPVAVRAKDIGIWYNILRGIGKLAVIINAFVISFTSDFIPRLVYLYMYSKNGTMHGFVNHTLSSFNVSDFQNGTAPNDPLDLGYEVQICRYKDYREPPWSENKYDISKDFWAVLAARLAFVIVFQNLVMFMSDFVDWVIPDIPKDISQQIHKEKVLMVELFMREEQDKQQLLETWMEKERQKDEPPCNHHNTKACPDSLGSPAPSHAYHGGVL
Kind of series: medchem TMEM16A halide-sensitive YFP assay, 22-point dose-response. The format is cell-based. On the set-up: expressed in transfected cells. The protocol: The TMEM16A HEK293T eYFP (H149Q, I153L) stable cell line for medchem support was generated by transfecting 10 μg of linearized hTMEM16A(abc) DNA constructs into HEK293T eYFP (H149Q,I153L) stable cells. The transfected cells were cultured under 200 μg/ml of hygromycin B selection for 20 days and the stable pool was single cell seeded in 96 well plate and duplicated plate were made after single cell clones were formed. YFP function assay were performed on duplicated plate and clones producing higher changes in fluorescence from the YFP assay were chosen for further expansion to form a stable cell line.
Plates were incubated for 24 h at 37°C with 5% CO2. On the assay day, medium was removed and replaced with 20 μl/well of assay buffer (Hank’s Balanced Salt Solution with 10 mM HEPES pH 7.4), 10 μl/well of 40x diluted compounds was added to assay plate and it was incubated at room temperature for 30 min, after which baseline fluorescence was read in the FLIPR instrument for 10 s. Then, 5 μl/well of a 3x trigger solution (24 mM iodide, 3 μM ionomycin in assay buffer) was added and the fluorescence kinetic trace was recorded for 2 min.

The structures appear in SMILES notation. Where two headings read alike, the source gives them in different places.

In the case of `COCCN(C(=O)c1cc(OC)c(OC)c(OC)c1)c1nc(-c2ccccc2)cs1` [Eact], the 50% effective concentration (EC50) was 3 µM in the series with TMEM16A; 1 to 3 µM with human ASM cells (cells from normal, asthmatic or COPD patient, read-out: average EC50 for depolarizing human ASM cells); 1.6 µM with human ASM cells (read-out: average EC50 for Eact induced ASM depolarization). For the same compound, the “increase of Muc5AC secretion” value in series [1] is on record as 2–3 fold. Also, the “increase of leukotriene (LTC4, LTB4) secretion” value in series [2] is 6–12 fold.

For `OCc1cc(C(O)CNCCCCCCOCCCCc2ccccc2)ccc1O` (centres unmarked) [Salmeterol, salmeterol], the onset of action in the series with airways is given as 90 min.

In the case of `CC(=O)Oc1ccccc1C(=O)Nc1ncc([N+](=O)[O-])s1` [Nitazoxanide], the “impact on cytochrome P450 enzymes” value in the series on cytochrome P450 enzymes is reported as “no significant impact”. Further, the IC50 at TMEM16A (acd) (outward current at +100 mV, 170 nM free intracellular calcium, ~60 s per concentration, read-out: TMEM16A Chloride Current (IC50)) was found to be 1.26 ± 1.31 µM; at hTMEM16A (abc) (average, 22-point dose-response, iodide as permeant anion, read-out: TMEM16A eYFP Assay (IC50)), 1.23 µM. Moreover, the “calcium-activated chloride current inhibited” value on TMEM16A (acd) (maximum antagonist activity) is “Over 80%”. The “scope of block of ionomycin-induced iodide eYFP quenching” value at hTMEM16A (abc) (up to 55.6 μM) is “partially inhibiting”.

The values above are taken from PMC6382696, “Drug Repurposing: The Anthelmintics Niclosamide and Nitazoxanide Are Potent TMEM16A Antagonists That Fully Bronchodilate Airways” (Frontiers in Pharmacology, 2019).
